What was measured:
[1] = system: diabetic C57 mice; experiment: Allogeneic islet transplantation in the liver of diabetic mice; conditions: for Odds ratio, Multivariate Cox Regression Analysis of loss of graft survival: Reparixin 95% CI 0.099-0.64, p=0.004, Rapamycin 95% CI 0.562-2.45, p=0.67; for Odds ratio, Multivariate Cox Regression Analysis of reaching primary function: allogeneic transplant, Reparixin 95% CI 0.79-2.99, p<0.202, Rapamycin 95% CI 0.62-2.15, p<0.62; for probability to reach the primary function (glycaemia<250 mg/dl) / median time to reach the primary function (glycaemia<250 mg/dl): allogeneic, 400 IE in liver; for probability to reach the primary function (glycaemia<250 mg/dl): Reparixin 5.28 mg/kg/h s.c. day -1 to 7, Rapamycin i.p. 0.3 then 0.15 mg/kg to day 14, vehicle 44%; for median time to reach the primary function (glycaemia<250 mg/dl): vehicle 2 days; for median survival time (graft): mice that achieved primary function, vehicle 8±0.5 days
Method: Islets from 12 week old Balb/c mice were transplanted in the liver of diabetic C57 mice (alloxan, glycaemia>450 mg/dl). […] In both cases 400 IE were transplanted.
The ability to reach primary function, defined as non-fasting blood glucose levels less than 250 mg/dl for 2 consecutive measurements after islet transplantation and the time to rejection defined as 2 consecutive non-fasting blood glucose readings greater than 300 mg/dL were first evaluated.

[2] = system: diabetic C57 mice; experiment: Allogeneic islet transplantation in bone marrow of diabetic mice; assay type: in vivo; conditions: 400 EI Balb/c islets in bone marrow; Reparixin 8 mg/h/kg s.c. continuous infusion 7 days from day -1
Method: A control group of mice was treated with vehicle.

[3] = system: diabetic C57 mice; experiment: Syngeneic islet transplantation in the liver of diabetic mice; assay type: in vivo
Method: Two different marginal islet mass models, 150 IE (Islet Equivalents) and 250 IE, were used. […] Control animals received continuous s.c. vehicle.
The ability to reach a non-fasting blood glucose level less than 200 mg/dl for two consecutive measurements after islet transplantation was first evaluated.
An intravenous glucose tolerance test (IVGTT) and an oral glucose tolerance test (OGTT) were performed 1 and 3 months after transplantation to evaluate the functionality of the grafted islets. IVGTT was initiated after a 16-hour fast; the mice were given glucose (0.5 g/kg) by tail vein injection. Blood samples were obtained 0, 1, 5, 15, 20, 30 and 60 minutes after injection and were used to determine glucose concentrations. From the IVGTT, glucose tolerance was quantified from the glucose elimination constant (KG; expressed as percent elimination of glucose per minute) as the reduction in circulating glucose between 1 and 15 min (KG1-15) after intravenous administration, following the logarithmic transformation of the individual plasma glucose values. A similar estimation was performed for the total 1- to 60-min glucose disappearance rate (KG 1-60). This parameter indicates the rate of glucose disappearance during the whole test. OGTT was initiated after a 4-hour fast; the mice were given glucose (1 g/kg) by oral gavage. Blood samples were obtained 0, 10, 20, 30, 60, 90 and 120 minutes after glucose administration and used to determine glucose concentrations. The area under the curve (AUC) for glucose during OGTT was calculated using the trapezoidal method (baseline=0 min). […] The data are reported as scatter plots. […] Upper and lower panels respectively report the data 1 and 3 months after transplantation.
Acute liver damage was quantified by circulating levels of alanine aminotransferase (ALT) 24 h and 48 h after Transplantation.

[4] = system: intrahepatic leukocyte (IHL) population; experiment: Intrahepatic leukocyte population after allogeneic intrahepatic islet transplantation (flow cytometry); assay type: in vivo, mice
Method: The intrahepatic leukocyte population was analysed in the presence or in the absence of Reparixin treatment after allogeneic intrahepatic islet transplantation in mice. […] The mice were sacrificed at day 0, +1, +3, +5, +7, +10, +14 after islet transplantation and the livers were weighed at the time of autopsy. Single cell suspensions were prepared from two liver lobes of known weight and analysis of the intrahepatic leukocyte (IHL) population was performed flow cytometry. The cells were surface stained with fluorescein isothiocyanate (FITC)-, phycoerythrin (PE)- or allophycocyanin (APC)-labeled anti-CD4, anti-CD8, anti-CD3, anti CD19, anti-TCR, anti-NK1.1, anti CD11, anti-Gr-1, anti-CD11b, and anti-CD11c Abs (PharMingen, San Diego, Calif.) for the detection of Gr-^+/CD11b^+/CD11c^− cells (mostly PMNs), […] (mostly T helper cell), CD8^+/TCR^+ cells (mostly CTLs), […], NK1.1^+/CD3^+ cells (NKT cells) and Gr-1^−/CD11b^−/CD11c^− (mostly macrophages), CD115+/CD11b+/Cd11c− (mostly monocytes), CD11c+/CD11b+/Gr1− (mostly dendritic cells), CD19 (mostly B lymphocytes). Samples were acquired on a FACSCalibur flow cytometer and the data were analyzed using CELLQuest software (Becton Dickinson Immunocytometry Systems, San Jose, Calif.). In a second set of experiments, CXCR2 and CXCR1 expression on IHL Population was evaluated at the time point in which leucocyte infiltration gained the highest degree of infiltration.

[5] = 1 and 3 months after transplantation, versus control mice

SMILES	Odds ratio, Multivariate Cox Regression Analysis of loss of graft survival [1]	Odds ratio, Multivariate Cox Regression Analysis of reaching primary function [1]	probability to reach the primary function (glycaemia<250 mg/dl) [1] [%]	median time to reach the primary function (glycaemia<250 mg/dl) [1] [days]	median survival time (graft) [1] [days]	time to rejection ([1]; mice that achieved primary function post-transplant, rejection = 2 consecutive non-fasting glucose readings >300 mg/dL)	outcome (primary function and time to rejection) [2]	glucose elimination constant between 1 and 15 min (KG1-15), IVGTT [3, 5]	glucose elimination constant between 1 and 60 min (KG1-60), IVGTT [3, 5]	AUC for glucose during OGTT ([3]; 1 and 3 months post transplant, versus control mice)	circulating levels of alanine aminotransferase (ALT), acute liver damage ([3]; 24 h and 48 h after transplantation, 150 or 250 IE)	probability to reach euglycaemia (<200 mg/dl) ([3]; syngeneic C57 islets, 150 or 250 IE in liver, Reparixin 8 mg/kg/h s.c. continuous infusion day -1 to 6 or 13, vehicle 35.1%) [%]	median time to reach euglycaemia (<200 mg/dl) ([3]; syngeneic C57 islets, 150 or 250 IE in liver, Reparixin 8 mg/kg/h s.c. continuous infusion, vehicle 50 days) [days]	Odds ratio, Multivariate Cox Regression Analysis of reaching euglycaemia ([3]; syngeneic transplant, 95% CI: 1.1-6.1, p<0.021)	circulating levels of white blood cells, red blood cells and platelets ([3]; syngeneic transplant, data not shown)	leucocytes recruitment and infiltration in the liver ([4]; allogeneic transplant 400 EI, Reparixin 8 mg/h/kg s.c. continuous infusion 7 days from day -1)	PMNs in the liver ([4]; allogeneic transplant, Reparixin 8 mg/h/kg s.c., FIG. 8)	NKT cells in the liver ([4]; allogeneic transplant, Reparixin 8 mg/h/kg s.c., FIG. 9)
CO[C@H]1C[C@@H]2CC[C@@H](C)[C@@](O)(O2)C(=O)C(=O)N2CCCC[C@H]2C(=O)O[C@H]([C@H](C)C[C@@H]2CC[C@@H](O)[C@H](OC)C2)CC(=O)[C@H](C)/C=C(\C)[C@@H](O)[C@@H](OC)C(=O)[C@H](C)C[C@H](C)/C=C/C=C/C=C/1C [Rapamycin, reference compound]	1.173	1.1	73	1	8 ± 0.6													
CC(C)Cc1ccc([C@@H](C)C(=O)NS(C)(=O)=O)cc1 [Reparixin, R(−)-2-[(4-isobutylphenyl)propionyl]-methanesulfonamide]	0.252	2.5	72	1	12 ± 0.6	significantly increased	improved	significantly increased	significantly increased	remains lower than that of the control mice	not affected	50	7	2.6	no difference	reduces	significantly affected	significantly affected

— US20120202884A1, “INHIBITORS OF CXCR1/2 AS ADJUVANTS IN THE TRANSPLANT OF PANCREATIC ISLETS” (DOMPE' S.P.A., priority 2009, published 2012)
